From the kinase profiling compilation of Christmann-Franck et al. (2016)

Experiments:
Assay in all cases: KINOMEscan competition binding
Settings in all cases: compound 10.0 µM
ULK1 (human) = ULK1 (human) (UniProt O75385)
RAF1 (human) = RAF1 (human) (UniProt P04049)
PAK3 (human) = PAK3 (human) (UniProt O75914)
ACVR2B (human) = ACVR2B (human) (UniProt Q13705)
MAP2K7 (human) = MAP2K7 (human) (UniProt O14733)
PKN1 (human) = PKN1 (human) (UniProt Q16512)
TLK1 (human) = TLK1 (human) (UniProt Q9UKI8)
[1] = test system: FLT3 (human), P36888 [R834Q]
CHUK (human) = CHUK (human) (UniProt O15111)
DYRK1A (human) = DYRK1A (human) (UniProt Q13627)
PDGFRA (human) = PDGFRA (human) (UniProt P16234)
CDK7 (human) = CDK7 (human) (UniProt P50613)
CDK7 (human), sequence (P50613 whole entry, looked up): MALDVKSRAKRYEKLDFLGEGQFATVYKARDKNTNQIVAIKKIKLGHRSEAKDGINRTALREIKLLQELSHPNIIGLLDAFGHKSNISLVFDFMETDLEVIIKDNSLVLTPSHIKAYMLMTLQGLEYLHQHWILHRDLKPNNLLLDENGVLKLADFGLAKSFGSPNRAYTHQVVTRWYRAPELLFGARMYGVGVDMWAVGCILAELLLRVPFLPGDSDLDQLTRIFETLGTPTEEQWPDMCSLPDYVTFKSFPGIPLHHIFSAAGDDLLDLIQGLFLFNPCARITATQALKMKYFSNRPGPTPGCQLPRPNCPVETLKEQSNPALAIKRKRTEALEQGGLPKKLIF

GRK1 (human) = GRK1 (human) (UniProt Q15835)
ITK (human) = ITK (human) (UniProt Q08881)
MAPK15 (human) = MAPK15 (human) (UniProt Q8TD08)
MAPK15 (human), sequence (Q8TD08 whole entry, looked up): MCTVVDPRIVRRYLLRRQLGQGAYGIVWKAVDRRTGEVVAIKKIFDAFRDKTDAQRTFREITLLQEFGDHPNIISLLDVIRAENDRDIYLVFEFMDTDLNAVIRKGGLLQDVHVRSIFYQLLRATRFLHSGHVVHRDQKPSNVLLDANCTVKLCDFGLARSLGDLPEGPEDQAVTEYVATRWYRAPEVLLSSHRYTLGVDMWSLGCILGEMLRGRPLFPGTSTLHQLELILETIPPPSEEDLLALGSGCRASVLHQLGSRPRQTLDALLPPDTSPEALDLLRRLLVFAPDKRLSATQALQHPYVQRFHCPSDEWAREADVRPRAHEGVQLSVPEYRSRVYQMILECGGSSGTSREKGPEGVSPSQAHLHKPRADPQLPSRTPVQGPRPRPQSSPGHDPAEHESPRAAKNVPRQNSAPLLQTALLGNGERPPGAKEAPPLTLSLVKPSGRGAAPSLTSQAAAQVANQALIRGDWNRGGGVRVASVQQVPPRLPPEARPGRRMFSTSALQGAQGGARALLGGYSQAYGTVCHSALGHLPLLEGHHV

CSNK1D (human) = CSNK1D (human) (UniProt P48730)
MAP3K15 (human) = MAP3K15 (human) (UniProt Q6ZN16)
PIK3CB (human) = PIK3CB (human) (UniProt P42338)
PRKX (human) = PRKX (human) (UniProt P51817)
PRKX (human), sequence (P51817 whole entry, looked up): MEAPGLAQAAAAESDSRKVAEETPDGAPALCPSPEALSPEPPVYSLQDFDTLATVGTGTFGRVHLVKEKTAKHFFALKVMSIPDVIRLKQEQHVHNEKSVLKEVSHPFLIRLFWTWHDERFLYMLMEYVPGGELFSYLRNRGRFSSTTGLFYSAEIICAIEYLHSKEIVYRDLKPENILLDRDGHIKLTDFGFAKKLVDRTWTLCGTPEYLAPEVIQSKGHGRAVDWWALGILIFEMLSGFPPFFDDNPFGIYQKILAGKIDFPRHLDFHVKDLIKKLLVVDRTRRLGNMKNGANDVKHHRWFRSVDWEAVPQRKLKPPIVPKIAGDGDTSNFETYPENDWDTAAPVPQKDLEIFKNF

MAP3K2 (human) = MAP3K2 (human) (UniProt Q9Y2U5)
PI4KB (human) = PI4KB (human) (UniProt Q9UBF8)
TGFBR2 (human) = TGFBR2 (human) (UniProt P37173)
TGFBR2 (human), sequence (P37173 whole entry, looked up): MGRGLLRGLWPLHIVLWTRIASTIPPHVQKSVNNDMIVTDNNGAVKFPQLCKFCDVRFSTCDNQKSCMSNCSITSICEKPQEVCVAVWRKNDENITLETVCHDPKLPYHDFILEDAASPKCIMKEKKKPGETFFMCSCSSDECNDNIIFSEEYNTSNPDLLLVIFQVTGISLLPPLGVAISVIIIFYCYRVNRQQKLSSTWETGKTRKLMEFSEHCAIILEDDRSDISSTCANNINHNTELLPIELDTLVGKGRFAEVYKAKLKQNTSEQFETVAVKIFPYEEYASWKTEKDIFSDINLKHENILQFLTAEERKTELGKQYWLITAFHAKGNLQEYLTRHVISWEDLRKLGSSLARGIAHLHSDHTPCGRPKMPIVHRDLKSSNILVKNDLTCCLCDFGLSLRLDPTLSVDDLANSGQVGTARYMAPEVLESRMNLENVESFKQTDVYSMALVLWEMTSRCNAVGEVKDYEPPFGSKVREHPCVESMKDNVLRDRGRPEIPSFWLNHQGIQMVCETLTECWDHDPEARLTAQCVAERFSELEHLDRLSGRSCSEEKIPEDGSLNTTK

MKNK1 (human) = MKNK1 (human) (UniProt Q9BUB5)
RPS6KA2 KD1 (human) = RPS6KA2 KD1 (human) (UniProt Q15349)
RPS6KA2 KD1 (human), sequence (Q15349 whole entry, looked up): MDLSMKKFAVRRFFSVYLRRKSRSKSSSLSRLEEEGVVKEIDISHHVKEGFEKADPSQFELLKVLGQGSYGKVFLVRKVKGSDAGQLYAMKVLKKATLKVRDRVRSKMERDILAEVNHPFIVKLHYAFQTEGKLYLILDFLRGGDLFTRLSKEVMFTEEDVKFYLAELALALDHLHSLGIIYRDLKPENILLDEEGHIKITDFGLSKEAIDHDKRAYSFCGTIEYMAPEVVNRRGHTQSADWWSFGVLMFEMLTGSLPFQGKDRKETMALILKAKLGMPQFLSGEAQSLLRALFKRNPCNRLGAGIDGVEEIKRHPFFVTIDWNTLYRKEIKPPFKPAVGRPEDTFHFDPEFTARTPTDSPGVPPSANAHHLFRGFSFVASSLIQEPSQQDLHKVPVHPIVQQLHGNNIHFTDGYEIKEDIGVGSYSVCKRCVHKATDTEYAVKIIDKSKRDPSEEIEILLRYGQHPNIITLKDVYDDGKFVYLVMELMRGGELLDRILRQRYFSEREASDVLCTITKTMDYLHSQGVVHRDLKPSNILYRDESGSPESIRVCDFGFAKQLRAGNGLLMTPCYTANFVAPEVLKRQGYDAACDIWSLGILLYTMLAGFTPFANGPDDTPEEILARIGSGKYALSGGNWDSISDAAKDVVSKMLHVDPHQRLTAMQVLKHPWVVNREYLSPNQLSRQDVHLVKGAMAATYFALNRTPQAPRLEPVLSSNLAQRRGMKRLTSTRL

[2] = test system: EGFR (human), P00533 [A750P; 747-749 del]
LCK (human) = LCK (human) (UniProt P06239)
FRK (human) = FRK (human) (UniProt P42685)
STK38 (human) = STK38 (human) (UniProt Q15208)
STK17A (human) = STK17A (human) (UniProt Q9UEE5)
PIP5K1A (human) = PIP5K1A (human) (UniProt Q99755)
CSNK1G3 (human) = CSNK1G3 (human) (UniProt Q9Y6M4)
STK17B (human) = STK17B (human) (UniProt O94768)
SRC (human) = SRC (human) (UniProt P12931)
NEK7 (human) = NEK7 (human) (UniProt Q8TDX7)
[3] = test system: PIK3CA (human), P42336 [Q546K]
PIK3CA (human), P42336 [Q546K], sequence (P42336 whole entry Q546K, looked up): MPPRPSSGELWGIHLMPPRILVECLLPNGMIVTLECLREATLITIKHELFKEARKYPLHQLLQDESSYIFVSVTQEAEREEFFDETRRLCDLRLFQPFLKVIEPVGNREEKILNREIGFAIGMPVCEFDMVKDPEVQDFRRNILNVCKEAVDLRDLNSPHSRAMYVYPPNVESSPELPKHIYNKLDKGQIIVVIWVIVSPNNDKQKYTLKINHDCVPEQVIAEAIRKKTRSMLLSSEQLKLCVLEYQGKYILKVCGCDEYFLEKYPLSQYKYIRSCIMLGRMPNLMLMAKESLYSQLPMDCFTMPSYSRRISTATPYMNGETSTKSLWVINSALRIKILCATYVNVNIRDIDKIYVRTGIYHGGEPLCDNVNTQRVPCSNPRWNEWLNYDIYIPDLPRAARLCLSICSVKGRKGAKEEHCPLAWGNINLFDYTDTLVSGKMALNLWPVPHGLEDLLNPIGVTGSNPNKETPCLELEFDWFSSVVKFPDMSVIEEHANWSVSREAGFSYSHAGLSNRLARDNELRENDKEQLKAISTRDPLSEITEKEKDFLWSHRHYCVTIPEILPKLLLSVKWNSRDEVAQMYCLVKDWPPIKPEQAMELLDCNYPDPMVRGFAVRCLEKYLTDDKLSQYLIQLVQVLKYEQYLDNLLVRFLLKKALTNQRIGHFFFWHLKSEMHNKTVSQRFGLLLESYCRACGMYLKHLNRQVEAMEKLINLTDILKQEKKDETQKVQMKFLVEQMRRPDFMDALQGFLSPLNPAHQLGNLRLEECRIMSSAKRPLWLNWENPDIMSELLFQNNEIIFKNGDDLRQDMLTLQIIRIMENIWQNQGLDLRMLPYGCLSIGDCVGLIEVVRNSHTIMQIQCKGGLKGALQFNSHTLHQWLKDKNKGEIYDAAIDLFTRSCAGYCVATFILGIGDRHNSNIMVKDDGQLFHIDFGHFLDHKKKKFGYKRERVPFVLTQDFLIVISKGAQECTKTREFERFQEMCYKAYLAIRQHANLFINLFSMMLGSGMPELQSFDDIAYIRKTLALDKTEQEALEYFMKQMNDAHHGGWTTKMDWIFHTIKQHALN

MYLK2 (human) = MYLK2 (human) (UniProt Q9H1R3)
AKT1 (human) = AKT1 (human) (UniProt P31749)
TAOK1 (human) = TAOK1 (human) (UniProt Q7L7X3)
SIK1 (human) = SIK1 (human) (UniProt P57059)
FGFR3 (human) = FGFR3 (human) (UniProt P22607)
FGFR3 (human), sequence (P22607 whole entry, looked up): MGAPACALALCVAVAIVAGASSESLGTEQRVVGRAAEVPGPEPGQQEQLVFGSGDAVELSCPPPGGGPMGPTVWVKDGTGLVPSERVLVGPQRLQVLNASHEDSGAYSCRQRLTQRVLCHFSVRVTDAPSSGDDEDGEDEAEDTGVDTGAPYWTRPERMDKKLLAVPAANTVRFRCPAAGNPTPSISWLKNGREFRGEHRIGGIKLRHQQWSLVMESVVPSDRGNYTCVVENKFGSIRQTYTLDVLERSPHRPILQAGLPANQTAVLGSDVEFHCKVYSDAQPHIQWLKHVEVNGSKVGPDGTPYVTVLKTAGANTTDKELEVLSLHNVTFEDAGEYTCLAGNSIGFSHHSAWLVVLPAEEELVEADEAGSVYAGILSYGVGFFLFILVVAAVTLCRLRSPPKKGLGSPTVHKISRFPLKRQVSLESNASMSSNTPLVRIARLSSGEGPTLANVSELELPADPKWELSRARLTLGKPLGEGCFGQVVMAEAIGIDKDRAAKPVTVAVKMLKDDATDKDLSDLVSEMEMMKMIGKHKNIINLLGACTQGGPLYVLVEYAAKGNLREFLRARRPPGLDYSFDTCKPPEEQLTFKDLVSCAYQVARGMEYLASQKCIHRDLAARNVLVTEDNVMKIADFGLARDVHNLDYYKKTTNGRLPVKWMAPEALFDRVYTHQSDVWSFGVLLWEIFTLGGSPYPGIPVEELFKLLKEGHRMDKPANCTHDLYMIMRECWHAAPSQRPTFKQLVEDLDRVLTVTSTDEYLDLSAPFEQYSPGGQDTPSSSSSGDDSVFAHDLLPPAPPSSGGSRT

CDK13 (human) = CDK13 (human) (UniProt Q14004)

MAP2K7 (human), sequence (O14733 whole entry, looked up): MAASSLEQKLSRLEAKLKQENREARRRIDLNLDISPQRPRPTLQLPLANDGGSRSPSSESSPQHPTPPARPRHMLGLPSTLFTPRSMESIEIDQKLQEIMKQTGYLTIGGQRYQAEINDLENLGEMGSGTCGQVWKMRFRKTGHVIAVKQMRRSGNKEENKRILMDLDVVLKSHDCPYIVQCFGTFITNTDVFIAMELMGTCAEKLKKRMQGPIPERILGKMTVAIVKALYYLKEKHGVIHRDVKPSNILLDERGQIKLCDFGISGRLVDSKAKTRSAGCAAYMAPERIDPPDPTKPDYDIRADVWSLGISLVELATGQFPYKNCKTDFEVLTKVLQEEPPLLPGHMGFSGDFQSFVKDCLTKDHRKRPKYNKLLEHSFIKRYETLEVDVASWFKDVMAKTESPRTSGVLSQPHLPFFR

`COc1cc(C(=O)N2CCC(N3CCN(C)CC3)CC2)ccc1Nc1ncc2c(n1)N(C)c1ccccc1C(=O)N2C` gave a kinase still bound, per cent of control (ULK1 (human)) of 80%, a kinase still bound, per cent of control (RAF1 (human)) of 100% and a kinase still bound, per cent of control (PAK3 (human)) of 83%. For the same molecule, the kinase still bound, per cent of control (ACVR2B (human)) was 100%, the kinase still bound, per cent of control (MAP2K7 (human)) was 100% and the kinase still bound, per cent of control (PKN1 (human)) was 100%. For the same molecule, the kinase still bound, per cent of control (TLK1 (human)) was 100%, the kinase still bound, per cent of control [1] was 100% and the kinase still bound, per cent of control (CHUK (human)) was 100%. For the same molecule, the kinase still bound, per cent of control (DYRK1A (human)) was 99%, the kinase still bound, per cent of control (PDGFRA (human)) was 100% and the residual activity (CDK7 (human)) was 86%. The kinase still bound, per cent of control (GRK1 (human)) was 91%, the kinase still bound, per cent of control (ITK (human)) was 82% and the kinase still bound, per cent of control (MAPK15 (human)) was 100%. It also gave a residual activity (CSNK1D (human)) of 81%, a kinase still bound, per cent of control (MAP3K15 (human)) of 69% and a kinase still bound, per cent of control (PIK3CB (human)) of 96%. The kinase still bound, per cent of control (PRKX (human)) was 99%, the kinase still bound, per cent of control (MAP3K2 (human)) was 97% and the kinase still bound, per cent of control (PI4KB (human)) was 95%. For the same molecule, the kinase still bound, per cent of control (TGFBR2 (human)) was 100%, the kinase still bound, per cent of control (MKNK1 (human)) was 50% and the kinase still bound, per cent of control (RPS6KA2 KD1 (human)) was 83%. For the same molecule, the kinase still bound, per cent of control [2] was 78%, the kinase still bound, per cent of control (LCK (human)) was 100% and the kinase still bound, per cent of control (FRK (human)) was 34%. It also gave a kinase still bound, per cent of control (STK38 (human)) of 96%, a kinase still bound, per cent of control (STK17A (human)) of 100% and a kinase still bound, per cent of control (PIP5K1A (human)) of 90%. For the same molecule, the kinase still bound, per cent of control (CSNK1G3 (human)) was 93%, the kinase still bound, per cent of control (STK17B (human)) was 93% and the kinase still bound, per cent of control (SRC (human)) was 100%. It also gave a kinase still bound, per cent of control (NEK7 (human)) of 100%, a kinase still bound, per cent of control [3] of 91% and a kinase still bound, per cent of control (MYLK2 (human)) of 98%. For the same molecule, the kinase still bound, per cent of control (AKT1 (human)) was 79%, the kinase still bound, per cent of control (TAOK1 (human)) was 28% and the kinase still bound, per cent of control (SIK1 (human)) was 77%. The kinase still bound, per cent of control (FGFR3 (human)) was 80% and the residual activity (CDK13 (human)) was 100%.
